Results from paper PMC7893776, “Selecting an anti-malarial clinical candidate from two potent dihydroisoquinolones” (Malaria Journal, 2021).
Read-outs that look alike come from different tables or passages of the source.

Key:
[1] = Microsomal stability, human; assay type: in vitro ADME; conditions: for CLint in vivo: scaled up using PBSF
Experimental: The metabolic stability assay was performed by incubating compounds individually (0.8, 4, or 20 µM) with mouse, rat, dog and human liver microsomes (Fisher, 0.5 mg/mL protein concentration) at 37 °C. The metabolic reaction was initiated by the addition of a NADPH-regenerating system and quenched at various time points by the addition of acetonitrile according to a published method.
The remaining concentration of each compound was measured as a ratio of peak area to the internal standard. The log peak area ratio was plotted vs. time (h), and the slope was determined to calculate the elimination rate constant [k = (− 2.303) * slope]. If deviation from first order kinetics was evident, only the initial linear portion of the plot was used to determine the rate constate, k. The half-life (h) was calculated as t1/2 = 0.693/k. Intrinsic clearance in vitro was calculated as CLintin vitro = (1000)*(0.693/t1/2*60)/0.5, where microsomal concentration in the reaction solution was 0.5 mg/mL; 1000 and 60 are scaling factors for volume (µL) and time (min), respectively. The intrinsic in vitro clearance was scaled to the intrinsic in vivo clearance using physiology based scaling factor (PBSF): CLint in vivo= CLint in vitro *PBSF: (microsome protein/gram liver) * (gram liver/kg b.w.), with PBSF: 47 (mouse), 47(rat), 58 (dog), 32 (human); and liver weight proportions: 54.9 (mouse), 36.6 (rat), 32.9 (dog) 25.7 (human).

[2] = Rat pharmacokinetics, single PO or IV dose; assay type: in vivo, male Sprague Dawley rats; conditions: for fraction of the IV dose recovered in urine: 24-h sampling period; for AUC(0-inf): all dose levels 50–200 mg/kg, read-out: mean AUCinf
Text: Studies were undertaken to determine the plasma pharmacokinetics of SJ733 and SJ311. These studies included: (i) single oral gavage (PO) or intravenous (IV) dose administration to female C57BL/6 mice; (ii) single PO or IV dose administration to male Sprague Dawley (SD) rats; (iii) single PO or IV dose administration to male beagle dogs; (iv) toxicokinetic (TK) study following single PO administration to male SD rats. The PO and IV formulation used for mouse studies at SJCRH was 1% hydroxypropyl-beta-cyclodextrin (w/v), 10% ethanol (v/v), 10% propylene glycol (v/v), 40% PEG-400 (v/v) and 39% PBS (pH 7.4) isotonic (v/v). Compounds were dosed orally as suspensions, and intravenously as filtered solutions. Compound concentrations were confirmed post filtration using UV spectroscopy. The IV formulation used for rat studies (Monash University) was the same as that used for mice. For PO dosing to rats (Monash University) at 2 mg/kg, a suspension formulation was used containing 0.5% (w/v) hydroxypropyl methylcellulose, 0.5% (v/v) benzyl alcohol and 0.4% (v/v) Tween 80. The formulation used for rat studies at SRI (PO, high dose) was the same as that used in mouse PK studies. The formulation for the high dose TK study at SRI was 0.5% methylcellulose in sterile water. The formulation used for dog studies was the same as that used in mouse PK studies. The PO and IV PK of SJ733 and SJ311 were studied in overnight-fasted male Sprague Dawley rats. Rats had access to water ad libitum throughout the pre- and post-dose sampling period, and access to food was re-instated 4 h post-dose. […] Once collected, blood samples were centrifuged, supernatant plasma was removed and stored frozen (− 20 °C) until LC–MS analysis within 1 week of collection. The high dose levels of both compounds (50, 100, 200 mg/kg, PO, (+)-SJ733/311) were also independently tested by SRI, with a single oral gavage administration. Blood (through jugular vein) and urine were collected at time points up to 72 and 24 h post dose, respectively. Supernatant plasma was removed following centrifugation and stored frozen (− 70 °C) until LC–MS analysis. For toxicology studies, male Sprague Dawley rats were administered 50, 100, 250, 500, or 750 mg/kg of (r)-SJ733 or (r)-SJ311 by oral gavage (one dose per animal). Body weights were recorded on Day 1 prior to dose administration and on Day 4. Blood samples (400 µL) were collected at 4 and 24 h post drug administration from the retro-orbital sinus. Potassium EDTA treated plasma was collected and kept frozen at -70 °C for bioanalytical analysis. For studies at Monash University, rat plasma and urine samples were extracted utilizing protein precipitation with a twofold volume ratio of acetonitrile. SJ733, SJ311, and diazepam (IS) were detected using LC–MS/MS instrumentation. Aliquots (3 µL) were injected onto a Waters Acquity UPLC equipped with a Waters Micromass Xevo TQ MS/MS and separated using a Supelco Ascentis Express RP Amide column (50 × 2.1 mm, 2.7 µm) with a methanol–water gradient containing 0.05% formic acid. Calibration standards were prepared by spiking blank matrix (plasma or urine) and the calibration range was from 1 to 10,000 ng/mL for plasma or 2.5 to 5000 ng/mL for urine. Plasma and urine samples from the high dose rat PK studies were analyzed by SRI. In both matrices, the sample volume was 50 μL, and assay entailed the addition of 50 μL of internal standard solution to the standards and study samples. The compounds were used as reciprocal standards for one another (427 nM SJ733 in Milli-Q-Water for SJ571311 and 437 nM SJ311 in Milli-Q-Water for SJ733). These mixtures were then extracted with 1000 μL of ethyl acetate by vortexing for 10 min on a multi-tube vortex mixer at maximum speed followed by separation of the organic and aqueous phases by centrifugation (18,000×g, 5 min). […]

[3] = LogD octanol/pH 7.4 buffer shake flask; assay type: physicochemical
Experimental: Octanol/pH 7.4 buffer partitioning experiments were conducted using a shake flask method, and pKa was assessed by potentiometric titration. Both methods have been described previously.

[4] = human microsomes, 0.8 µM, independent replicate to Table 4
[5] = human microsomes, 4 µM, independent replicate to Table 4
[6] = human microsomes, 20 µM, independent replicate to Table 4
[7] = human microsomes, 20, 4, 0.8 µM
[8] = male, Sprague Dawley, plasma, PO
[9] = male, Sprague Dawley, plasma, PO, read-out: terminal half-life, mean t1/2

N#Cc1cc(NC(=O)[C@H]2c3ccccc3C(=O)N(CC(F)(F)F)[C@@H]2c2cccnc2)ccc1F [(+)-SJ733]
CLint ([1]; human microsomes, 0.8 µM): 45.5 ± 4.0 µl/min/mg protein | t1/2 ([1]; human microsomes, 0.8 µM): 0.5 ± 0.1 h | CLint in vitro [1, 4]: 42.6 ± 0.7 µl/min/mg protein | CLint in vivo ([1]; human microsomes, 0.8 µM): 38.4 ± 0.7 mL/min/kg | CLint in vitro [1, 5]: 34.5 ± 0.6 µl/min/mg protein | CLint in vivo ([1]; human microsomes, 4 µM): 31.0 ± 0.5 mL/min/kg | CLint in vitro [1, 6]: 20.6 ± 0.5 µl/min/mg protein | CLint in vivo ([1]; human microsomes, 20 µM): 18.5 ± 0.4 mL/min/kg | AUCinf ([2]; in vivo, iv, 0.1 mg/kg): 14.7 ± 0.7 µM·h | CL ([2]; in vivo, iv, 0.1 mg/kg): 11.3 ± 0.33 mL/min/kg | Dose in urine ([2]; in vivo, iv, 0.1 mg/kg): 1.6 ± 0.5% | Half-life ([2]; in vivo, iv, 0.1 mg/kg): 9.2 ± 0.4 h | Vss ([2]; in vivo, iv, 0.1 mg/kg): 3.3 ± 0.2 L/kg | AUCinf ([2]; in vivo, po, 1.7 mg/kg): 1.9 ± 0.6^ c h.µM | Cmax ([2]; in vivo, po, 1.7 mg/kg): 0.7 ± 0.1 µM | Dose in urine ([2]; in vivo, po, 1.7 mg/kg): 0.5 ± 0.3% | F% ([2]; in vivo, po, 1.7 mg/kg): 36.7 ± 12% | Tmax ([2]; in vivo, po, 1.7 mg/kg): 0.7 ± 0.3 h | AUCinf ([2]; in vivo, po, 1.9 mg/kg): 6.6 ± 1.2 µM·h | Cmax ([2]; in vivo, po, 1.9 mg/kg): 0.9 ± 0.1 µM | Dose in urine ([2]; in vivo, po, 1.9 mg/kg): 1.2 ± 0.4% | F% ([2]; in vivo, po, 1.9 mg/kg): 111 ± 19% | Half life ([2]; in vivo, po, 1.9 mg/kg): 11.3 ± 6.0 h | Tmax ([2]; in vivo, po, 1.9 mg/kg): 3.0 ± 0.9 h | AUCinf ([2]; in vivo, po, 50 mg/kg): 96.3 ± 5.8 µM·h | CL/F ([2]; in vivo, po, 50 mg/kg): 18.3 ± 1.7 mL/min/kg | Cmax ([2]; in vivo, po, 50 mg/kg): 11.1 ± 1.2 µM | F% ([2]; in vivo, po, 50 mg/kg): 74.5% | Half life ([2]; in vivo, po, 50 mg/kg): 7.7 ± 3.2 h | Tmax ([2]; in vivo, po, 50 mg/kg): 4 h | V/F ([2]; in vivo, po, 50 mg/kg): 12 ± 5.0 L/kg | AUCinf ([2]; in vivo, po, 100 mg/kg): 180 ± 23.2 µM·h | CL/F ([2]; in vivo, po, 100 mg/kg): 20 ± 1.7 mL/min/kg | Cmax ([2]; in vivo, po, 100 mg/kg): 16.6 ± 3.2 µM | F% ([2]; in vivo, po, 100 mg/kg): 69.6% | Half life ([2]; in vivo, po, 100 mg/kg): 10.3 ± 6.9 h | Tmax ([2]; in vivo, po, 100 mg/kg): 3.0 ± 1.7 h | V/F ([2]; in vivo, po, 100 mg/kg): 17 ± 9.0 L/kg | AUCinf ([2]; in vivo, po, 200 mg/kg): 330 ± 78.4 µM·h | CL/F ([2]; in vivo, po, 200 mg/kg): 21.7 ± 5 mL/min/kg | Cmax ([2]; in vivo, po, 200 mg/kg): 27.9 ± 3.8 µM | Dose in urine ([2]; in vivo, po, 200 mg/kg): 0.2 ± 0.1% | F% ([2]; in vivo, po, 200 mg/kg): 63.8% | Half life ([2]; in vivo, po, 200 mg/kg): 7.7 ± 3.3 h | Tmax ([2]; in vivo, po, 200 mg/kg): 4.0 ± 3.5 h | V/F ([2]; in vivo, po, 200 mg/kg): 15 ± 9.0 L/kg

N#Cc1cc(NC(=O)C2c3ccccc3C(=O)N(CC(F)(F)F)C2c2cccnc2)ccc1F (racemic) [(r)-SJ733]
CLint in vitro [1, 4]: 12.7 ± 0.3 µl/min/mg protein | CLint in vivo ([1]; human microsomes, 0.8 µM): 11.5 ± 0.3 mL/min/kg | CLint in vitro [1, 5]: 11.5 ± 0.3 µl/min/mg protein | CLint in vivo ([1]; human microsomes, 4 µM): 10.3 ± 1.2 mL/min/kg | CLint in vitro [1, 6]: <7 µl/min/mg protein | CLint in vivo ([1]; human microsomes, 20 µM): <5.2 mL/min/kg | Tmax ([2]; in vivo, po, 19.8 mg/kg): 1.0 h

N#Cc1cc(NC(=O)C2c3ccccc3C(=O)N(CC(F)(F)F)C2c2cn[nH]c2)ccc1F (racemic) [(r)-SJ311]
CLint in vitro [1, 7]: <7 µl/min/mg protein | CLint in vivo [1, 7]: <5.2 mL/min/kg | LogD (7.4) Shake flask [3]: 2.34

N#Cc1cc(NC(=O)[C@H]2c3ccccc3C(=O)N(CC(F)(F)F)[C@@H]2c2cn[nH]c2)ccc1F [SJ311]
logD ([3]; pH 7.4): 2.3 | fraction of the IV dose recovered in urine ([2]; IV): ca. 22% | AUC(0-inf) [2, 8]: 34.1 to 65.8 µM·h | Half-life [2, 9]: 3.5 to 7.9 h

N#Cc1cc(NC(=O)[C@H]2c3ccccc3C(=O)N(CC(F)(F)F)[C@@H]2c2cn[nH]c2)ccc1F [(+)-SJ311]
CLint ([1]; human microsomes, 0.8 µM): < 7 µl/min/mg protein | t1/2 ([1]; human microsomes, 0.8 µM): > 4 h | LogD (7.4) Shake flask [3]: 2.30 | Half life ([2]; in vivo, po, 20.4 mg/kg): 7.9, 7.9 h | AUCinf ([2]; in vivo, po, 50 mg/kg): 34.1 ± 8.7 µM·h | CL/F ([2]; in vivo, po, 50 mg/kg): 56.7 ± 16.7 mL/min/kg | Cmax ([2]; in vivo, po, 50 mg/kg): 4.4 ± 2 µM | F% ([2]; in vivo, po, 50 mg/kg): 20.5% | Half life ([2]; in vivo, po, 50 mg/kg): 3.5 ± 0.4 h | Tmax ([2]; in vivo, po, 50 mg/kg): 1.2 ± 0.8 h | V/F ([2]; in vivo, po, 50 mg/kg): 17 ± 7.0 L/kg | AUCinf ([2]; in vivo, po, 100 mg/kg): 61.9 ± 11.5 µM·h | CL/F ([2]; in vivo, po, 100 mg/kg): 60 ± 12 mL/min/kg | Cmax ([2]; in vivo, po, 100 mg/kg): 7.1 ± 0.81 µM | F% ([2]; in vivo, po, 100 mg/kg): 18.6% | Half life ([2]; in vivo, po, 100 mg/kg): 4.3 ± 2.2 h | Tmax ([2]; in vivo, po, 100 mg/kg): 4 h | V/F ([2]; in vivo, po, 100 mg/kg): 21 ± 8.0 L/kg | AUCinf ([2]; in vivo, po, 200 mg/kg): 65.8 ± 12.6 µM·h | CL/F ([2]; in vivo, po, 200 mg/kg): 112 ± 8.3 mL/min/kg | Cmax ([2]; in vivo, po, 200 mg/kg): 9.4 ± 5.4 µM | Dose in urine ([2]; in vivo, po, 200 mg/kg): 1.1 ± 0.4% | F% ([2]; in vivo, po, 200 mg/kg): 9.9% | Half life ([2]; in vivo, po, 200 mg/kg): 4 h | Tmax ([2]; in vivo, po, 200 mg/kg): 3.2 ± 4.2 h | V/F ([2]; in vivo, po, 200 mg/kg): 38 L/kg

N#Cc1cc(NC(=O)[C@H]2c3ccccc3C(=O)N(CC(F)(F)F)[C@@H]2c2cccnc2)ccc1F (racemic) [SJ733]
fraction of the IV dose recovered in urine ([2]; IV): ~1.5% | Half-life ([2]; male, Sprague Dawley, plasma, IV, isomers and racemate at similar doses, read-out: IV half-lives): 5 to 18 h | AUC(0-inf) [2, 8]: 96.3 to 330 µM·h | Half-life [2, 9]: 7.7 to 10.3 h | bioavailability ([2]; male, Sprague Dawley, plasma, po, summary over the oral doses studied, read-out: Rat F (oral bioavailability)): 60 to 100% | clearance ([2]; male, Sprague Dawley, plasma, read-out: measured in vivo clearance (converted)): ~11.7 mL/min/kg | Rat F (oral bioavailability) ([2]; summary over the oral doses studied): 63-122%
